Results: patent US12304894B2, “Derivatives of adamantyl oxadiazoles and pharmaceutically acceptable solvates, hydrates and salts thereof, pharmaceutical composition comprising same, synthesis method, suitable for use as effective and selective inhibitors of the reductase activity of the enzyme 11-beta dehydrogenase type 1 …” (PONTIFICIA UNIVERSIDAD CATOLICA DE CHILE, priority 2019, dated 2025)
pIC50: −log10 of the molar value.

What was measured:
Assay type in all cases: biochemical
[1] = molecular target: T1, recombinant 11β-HSD1 enzyme (Homo sapiens (Human), UniProt P28845); assay: 11β-HSD1 reductase activity (HTRF Cortisol Kit); details: 266 nM cortisone, 333 μM NADPH, read-out: 11b-HSD1 reductase (HTRF) IC50
T1 sequence (P28845 whole entry): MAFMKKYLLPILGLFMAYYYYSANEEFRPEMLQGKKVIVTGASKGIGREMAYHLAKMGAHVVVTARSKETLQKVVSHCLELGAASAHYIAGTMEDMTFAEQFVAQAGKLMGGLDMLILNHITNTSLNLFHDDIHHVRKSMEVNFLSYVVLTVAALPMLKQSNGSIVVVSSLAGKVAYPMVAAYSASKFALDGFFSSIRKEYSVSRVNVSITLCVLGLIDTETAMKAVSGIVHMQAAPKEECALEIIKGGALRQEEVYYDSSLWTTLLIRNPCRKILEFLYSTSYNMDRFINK
Method: Determination of 11β-HSD1 Reductase Activity
First, stock solutions of the compounds were prepared in DMSO at a concentration of […], of which serial dilutions were made in order to determine the efficacy curve.
As for the recombinant 11β-HSD1 enzyme (Cayman Chemical, MI, USA; Item No. 10007815), it was prepared in Tris Buffer 20 mM EDTA 5 mM pH 6.0 (Tris buffer) at different dilutions.
Initially, the enzyme concentration to be used in the assays in order to evaluate the biological activity of the compounds was determined. The Cortisol Kit product (Cisbio, MA, USA; Cat no. 62CRTPEG) was used for that purpose.
The protocol consisted of preparing the reaction buffer, adding 266 nM cortisone and 333 μM NADPH in Tris buffer. Then, this reaction buffer is added to the wells of the HTRF (Homogeneous Time Resolved Fluorescence) reaction plate together with the enzyme in a 4:1 ratio respectively, and incubated for 2 hours at 37° C. In the case of the control wells, two wells with Tris buffer were added, without compounds.
After the incubation time, the reagents of the Cortisol kit were added, Cortisol d2 and Cortisol cryptate in sample ratio, Cortisol d2 and cortisol cryptate 2:1:1, in a quantity according to the size of the well as indicated by the supplier (for the negative control of the kit, the cortisol d2 is replaced by the kit's reconstitution buffer). This reaction is incubated for 1 hour at room temperature in order to later read the fluorescence at 665 and 620 nm.
Once the enzyme concentration to be used has been determined, the cortisol kit protocol is continued to determine the efficacy curve for the compounds. As previously done, a plate for HTRF was prepared adding to each well of the reaction buffer, the recombinant 11β-HSD1 enzyme and the compounds to be assayed in a 3:1:1 ratio, respectively. The plate was subsequently incubated at 37° C. for 2 hours.
After the incubation time, the reagents of the cortisol kit, cortisol d2 and cortisol cryptate, are added, and were incubated again for 1 hour at room temperature. Finally, the fluorescence of each well was determined at 665 and 620 nm.

[2] = molecular target: T1, recombinant 11β-HSD1 enzyme; assay: 11β-HSD1 oxidase activity (HTRF Cortisol Kit); details: for 11b-HSD1 oxidase (activ rem %) 100 nM: remaining activity at 100 nM compound; for 11b-HSD1 oxidase (activ rem %) 100 uM: remaining activity at 100 uM compound
Method: Determination of 11β-HSD1 Oxidase Activity
The Cortisol Kit (Cisbio) product was used for that purpose.
For the analysis, the compounds are reconstituted in DMSO in a stock of 10 mM concentration, from which serial dilutions were prepared for the efficiency curve.
The recombinant 11β-HSD1 enzyme dilutions were prepared in 20 mM Tris Buffer 5 mM EDTA pH 6.0 (Tris buffer).
Initially, the enzyme concentration to be used was determined. For this purpose, a plate for HRTF was prepared with Tris buffer with 100 nM cortisol and 200 μM NADP+, including in the wells of the plate for HTRF together with the enzyme in a 4:1 ratio, respectively, and incubated for 2 hours at 37° C. After this time, the reagents of the Cortisol kit, Cortisol d2 and Cortisol cryptate in sample ratio, Cortisol d2 and cortisol cryptate 2:1:1 were added, incubating this new reaction for 1 hour at room temperature. Subsequently, the fluorescence was determined at 665 and 620 nm.
An HRTF plate was again prepared, where the reaction buffer, the recombinant 11β-HSD1 enzyme and the compound were added in each well in a 3:1:1 ratio, respectively. The plate was incubated at 37° C. for 2 hours. After the incubation time, the reagents of the cortisol kit, cortisol d2 and cortisol cryptate, were added as indicated above. They were then incubated at room temperature for 1 hour to finally read the fluorescence at 665 and 620 nm.

11β-HSD2 = 11β-HSD2 oxidase activity in human hepatic microsomes (HTRF Cortisol Kit); details: remaining activity at 100 nM compound
Method: Determination of 11β-HSD2 Oxidase Activity
The concentration of cortisone produced in the reaction, with and without the compounds, was determined using the Cortisol Kit (Cisbio) product in order to evaluate the 11β-HSD2 oxidase activity.
As in the previous assays, the compounds are reconstituted in DMSO to 10 mM stock, in order to subsequently make serial dilutions to determine the efficacy curve.
To perform the assay, the HTRF plate was prepared containing Tris buffer, 100 nM cortisol and 200 μM NAD^+. Enzyme is added to the corresponding wells in a 4:1 ratio, respectively, and incubated for 2 hours at 37° C. For the kit control, two wells are added only with Tris buffer.
After the incubation time, the reagents of the Cortisol kit, Cortisol d2 and Cortisol cryptate, in a sample ratio, Cortisol d2 and cortisol cryptate 2:1:1 are added. For the negative control, cortisol d2 was replaced in some wells by the kit's reconstitution buffer. The plate was incubated for 1 hour at room temperature to later read at 665 and 620 nm.
For this purpose, the reaction buffer was prepared and subsequently, in a plate for HTRF, the reaction buffer, the microsomes in a concentration of 5 mg/mL and the compound in a ratio of 3:1:1, respectively, were added to each well. In the case of reaction controls, the reaction buffer without cortisol and without compound is included for the negative control. For the positive control, no compound is added, and for the kit controls, only the reaction buffer is added to the negative and positive control wells.
After incubating the plate for 2 hours, the reagents of the cortisol kit, cortisol d2 and cortisol cryptate, are added to the corresponding wells as indicated above. They are then incubated at room temperature for 1 hour to finally read the 665 and 620 nm fluorescence.

c1ccc(CCc2nc(C34CC5CC(CC(C5)C3)C4)no2)cc1 [BD-31, 1-phenyl-2-(3-adamantyl-1,2,4-oxadiazol-5-yl)ethane]
pIC50 [1]: 6.83 | 11b-HSD1 oxidase (activ rem %) 100 nM [2]: 86.1% | 11b-HSD1 oxidase (activ rem %) 100 uM [2]: 86.20% | 11b-HSD2 oxidase (activ rem %) Microcosms 100 nM (11β-HSD2): 55.4%

COc1ccc(CCc2nc(C34CC5CC(CC(C5)C3)C4)no2)cc1 [BD-32, 1-(4-methoxyphenyl)-2-(3-adamantyl-1,2,4-oxadiazol-5-yl)ethane]
pIC50 [1]: 7.02 | 11b-HSD1 oxidase (activ rem %) 100 nM [2]: 104.1% | 11b-HSD1 oxidase (activ rem %) 100 uM [2]: 62.7% | 11b-HSD2 oxidase (activ rem %) Microcosms 100 nM (11β-HSD2): 60.0%

Clc1ccc(CCc2nc(C34CC5CC(CC(C5)C3)C4)no2)cc1 [BD-33, 1-(4-chlorophenyl)-2-(3-adamantyl-1,2,4-oxadiazol-5-yl)ethane]
pIC50 [1]: 8.04 | 11b-HSD1 oxidase (activ rem %) 100 nM [2]: 107.0% | 11b-HSD1 oxidase (activ rem %) 100 uM [2]: 75.4% | 11b-HSD2 oxidase (activ rem %) Microcosms 100 nM (11β-HSD2): 59.4%

Fc1ccc(CCc2nc(C34CC5CC(CC(C5)C3)C4)no2)cc1 [BD-34, 1-(4-fluorophenyl)-2-(3-adamantyl-1,2,4-oxadiazol-5-yl)ethane]
pIC50 [1]: 6.98 | 11b-HSD1 oxidase (activ rem %) 100 nM [2]: 109.0% | 11b-HSD1 oxidase (activ rem %) 100 uM [2]: 77.2% | 11b-HSD2 oxidase (activ rem %) Microcosms 100 nM (11β-HSD2): 68.8%

Brc1ccc(CCc2nc(C34CC5CC(CC(C5)C3)C4)no2)cc1 [BD-35, 1-(4-bromophenyl)-2-(3-adamantyl-1,2,4-oxadiazol-5-yl)ethane]
pIC50 [1]: 8.00 | 11b-HSD1 oxidase (activ rem %) 100 nM [2]: 91.3% | 11b-HSD1 oxidase (activ rem %) 100 uM [2]: 104.0% | 11b-HSD2 oxidase (activ rem %) Microcosms 100 nM (11β-HSD2): 79.5%

Cc1ccc(CCc2nc(C34CC5CC(CC(C5)C3)C4)no2)cc1 [BD-36, 1-(4-methylphenyl)-2-(3-adamantyl-1,2,4-oxadiazol-5-yl)ethane]
pIC50 [1]: 6.99 | 11b-HSD1 oxidase (activ rem %) 100 nM [2]: 110.3% | 11b-HSD1 oxidase (activ rem %) 100 uM [2]: 95.3% | 11b-HSD2 oxidase (activ rem %) Microcosms 100 nM (11β-HSD2): 40.1%

Oc1ccc(CCc2nc(C34CC5CC(CC(C5)C3)C4)no2)cc1 [BD-37, 1-(4-hydroxyphenyl)-2-(3-adamantyl-1,2,4-oxadiazol-5-yl)ethane]
pIC50 [1]: 8.96 | 11b-HSD1 oxidase (activ rem %) 100 nM [2]: 109.6% | 11b-HSD1 oxidase (activ rem %) 100 uM [2]: 88.1% | 11b-HSD2 oxidase (activ rem %) Microcosms 100 nM (11β-HSD2): 58.3%

COc1cccc(CCc2nc(C34CC5CC(CC(C5)C3)C4)no2)c1 [BD-38, 1-(3-methoxyphenyl)-2-(3-adamantyl-1,2,4-oxadiazol-5-yl)ethane]
pIC50 [1]: 6.99 | 11b-HSD1 oxidase (activ rem %) 100 nM [2]: 88.1% | 11b-HSD1 oxidase (activ rem %) 100 uM [2]: 100.5% | 11b-HSD2 oxidase (activ rem %) Microcosms 100 nM (11β-HSD2): 61.9%

c1cc(CCc2nc(C34CC5CC(CC(C5)C3)C4)no2)ccn1 [BD-39, 1-(4-pyridyl)-2-(3-adamantyl-1,2,4-oxadiazol-5-yl)ethane]
pIC50 [1]: 7.01 | 11b-HSD1 oxidase (activ rem %) 100 nM [2]: 89.4% | 11b-HSD1 oxidase (activ rem %) 100 uM [2]: 75.3% | 11b-HSD2 oxidase (activ rem %) Microcosms 100 nM (11β-HSD2): 59.2%

CC(C)(C)c1ccc(CCc2nc(C34CC5CC(CC(C5)C3)C4)no2)cc1 [BD-41, 1-(4-tert-butylphenyl)-2-(3-adamantyl-1,2,4-oxadiazol-5-yl)ethane]
pIC50 [1]: 6.99 | 11b-HSD1 oxidase (activ rem %) 100 nM [2]: 85.9% | 11b-HSD1 oxidase (activ rem %) 100 uM [2]: 86.1% | 11b-HSD2 oxidase (activ rem %) Microcosms 100 nM (11β-HSD2): 49.7%

Fc1cccc(CCc2nc(C34CC5CC(CC(C5)C3)C4)no2)c1 [BD-42, 1-(3-fluorophenyl)-2-(3-adamantyl-1,2,4-oxadiazol-5-yl)ethane]
pIC50 [1]: 7.04 | 11b-HSD1 oxidase (activ rem %) 100 nM [2]: 83.0% | 11b-HSD1 oxidase (activ rem %) 100 uM [2]: 89.8% | 11b-HSD2 oxidase (activ rem %) Microcosms 100 nM (11β-HSD2): 59.2%

c1ccc(CCc2nc(C34CC5CC(CC(C5)C3)C4)no2)nc1 [BD-45, 1-(2-pyridyl)-2-(3-adamantyl-1,2,4-oxadiazol-5-yl)ethane]
pIC50 [1]: 8.96 | 11b-HSD1 oxidase (activ rem %) 100 nM [2]: 97.4% | 11b-HSD2 oxidase (activ rem %) Microcosms 100 nM (11β-HSD2): 70.2%

O=[N+]([O-])c1ccc(CCc2nc(C34CC5CC(CC(C5)C3)C4)no2)cc1 [BD-46, 1-(4-nitrophenyl)-2-(3-adamantyl-1,2,4-oxadiazol-5-yl)ethane]
pIC50 [1]: 7.62 | 11b-HSD1 oxidase (activ rem %) 100 nM [2]: 104.6% | 11b-HSD1 oxidase (activ rem %) 100 uM [2]: 65.4% | 11b-HSD2 oxidase (activ rem %) Microcosms 100 nM (11β-HSD2): 62.0%
